Results: patent US9597382B2, “KNTC2 peptides and vaccines containing the same” (ONCOTHERAPY SCIENCE, INC., priority 2013, dated 2017)

Columns and labels:
[1] = test system: COS7 cells transfected with KNTC2 and HLA-A*0201; experiment: Specific CTL activity against target cells expressing KNTC2 and HLA-A*0201; assay type: cell-based, African green monkey
Description: The cDNA encoding an open reading frame of target genes or HLA-A*0201 was amplified by PCR. The PCR-amplified product was cloned into expression vector. The plasmids were transfected into COS7, which is the target genes and HLA-A*0201-null cell line, using lipofectamine 2000 (Invitrogen) according to the manufacturer's procedure. After 2 days from transfection, the transfected cells were harvested with versene (Invitrogen) and used as the stimulator cells (5×10^4 cells/well) for CTL activity assay.
The established CTL line raised against KNTC2-A02-9-184 (SEQ ID NO: 7) peptide was examined for the ability to recognize target cells that express KNTC2 and HLA-A*0201 molecule. COS7 cells transfected with both the full length of KNTC2 and HLA-A*0201 gene (a specific model for the target cells that express KNTC2 and HLA-A*0201 gene) were prepared as a stimulator cells, and COS7 cells transfected with either full length of KNTC2 or HLA-A*0201 were used as the controls.

[2] = test system: peptide-pulsed C1R-A02 cells; experiment: IFN-gamma ELISPOT assay on CTLs induced with KNTC2 peptides; assay type: cell-based, human; details: CTLs induced with peptide-pulsed DCs from HLA-A*0201 positive donor; peptide-pulsed C1R-A02 cells vs control wells
Description: Monocyte-derived dendritic cells (DCs) were used as antigen-presenting cells to induce cytotoxic T lymphocyte (CTL) responses against peptides presented on human leukocyte antigen (HLA). DCs were generated in vitro as described elsewhere (Nakahara S et al., Cancer Res 2003 Jul. 15, 63(14): 4112-8). Specifically, peripheral blood mononuclear cells isolated from a normal volunteer (HLA-A*0201 positive) by Ficoll-Paque plus (Pharmacia) solution were separated by adherence to a plastic tissue culture dish (Becton Dickinson) so as to enrich them as the monocyte fraction. The monocyte-enriched population was cultured in the presence of 1000 IU/ml of granulocyte-macrophage colony-stimulating factor (R&D System) and 1000 IU/ml of interleukin (IL)-4 (R&D System) in AIM-V Medium (Invitrogen) containing 2% heat-inactivated autologous serum (AS). After 7 days of culture, the cytokine-induced DCs were pulsed with 20 micro g/ml of each of the synthesized peptides in the presence of 3 micro g/ml of beta 2-microglobulin for 3 hr at 37 degrees C. in AIM-V Medium. The generated cells appeared to express DC-associated molecules, such as CD80, CD83, CD86 and HLA class II, on their cell surfaces (data not shown). These peptide-pulsed DCs were then inactivated by X ray-irradiated (20 Gy) and mixed at a 1:20 ratio with autologous CD8+ T cells, obtained by positive selection with CD8 Positive Isolation Kit (Dynal). These cultures were set up in 48-well plates (Corning); each well contained 1.5×10^4 peptide-pulsed DCs, 3×10^5 CD8+ T cells and 10 ng/ml of IL-7 (R&D System) in 0.5 ml of AIM-V/2% AS medium. Three days later, these cultures were supplemented with IL-2 (CHIRON) to a final concentration of 20 IU/ml. On day 7 and 14, the T cells were further stimulated with the autologous peptide-pulsed DCs. The DCs were prepared each time by the same way described above. CTL was tested against peptide-pulsed C1R-A02 cells after the 3rd round of peptide stimulation on day 21 (Tanaka H et al., Br J Cancer 2001 Jan. 5, 84(1): 94-9; Umano Y et al., Br J Cancer 2001 Apr. 20, 84(8): 1052-7; Uchida N et al., Clin Cancer Res 2004 Dec. 15, 10(24): 8577-86; Suda T et al., Cancer Sci 2006 May, 97(5): 411-9; Watanabe T et al., Cancer Sci 2005 August, 96(8): 498-506).
(§1) To examine specific CTL activity, IFN-gamma ELISPOT assay and IFN-gamma ELISA were performed. Peptide-pulsed C1R-A02 cells (1×10^4/well) were prepared as stimulator cells. Cultured cells in 48-well plate, CTL lines and CTL clones were used as responder cells. IFN-gamma ELISPOT assay and IFN-gamma ELISA were performed under the manufacturer's procedure.

[3] = test system: C1R-A02 cells pulsed with corresponding peptide; experiment: IFN-gamma ELISA of CTL clones established by limiting dilution; assay type: cell-based, human
Procedure: The dilutions were made to have 0.3, 1, and 3 CTLs/well in 96 round-bottomed micro titer plate (Nalge Nunc International). CTLs were cultured with 1×10^4 cells/well of 2 kinds of human B-lymphoblastoid cell lines, 30 ng/ml of anti-CD3 antibody, and 125 IU/ml of IL-2 in a total of 150 micro 1/well of AIM-V Medium containing 5% AS. 50 micro 1/well of IL-2 were added to the medium 10 days later to reach a final concentration of 125 IU/ml IL-2. CTL activity was tested on the 14th day, and CTL clones were expanded using the same method as described above (Uchida N et al., Clin Cancer Res 2004 Dec. 15, 10(24): 8577-86; Suda T et al., Cancer Sci 2006 May, 97(5): 411-9; Watanabe T et al., Cancer Sci 2005 August, 96(8): 498-506).
as §1

[4] = test system: peptide-pulsed C1R-A02 cells; experiment: IFN-gamma ELISA of CTL lines; assay type: cell-based, human; details: target cells pulsed with corresponding peptide vs without peptide pulse
Procedure: CTLs were expanded in culture using the method similar to the one described by Riddell et al. (Walter E A et al., N Engl J Med 1995 Oct. 19, 333(16): 1038-44; Riddell S R et al., Nat Med 1996 Feb. 2(2): 216-23). A total of 5×10^4 CTLs were suspended in 25 ml of AIM-V/5% AS medium with 2 kinds of human B-lymphoblastoid cell lines, inactivated by Mitomycin C, in the presence of 40 ng/ml of anti-CD3 monoclonal antibody (Pharmingen). One day after initiating the cultures, 120 IU/ml of IL-2 were added to the cultures. The cultures were fed with fresh AIM-V/5% AS medium containing 30 IU/ml of IL-2 on days 5, 8 and 11 (Tanaka H et al., Br J Cancer 2001 Jan. 5, 84(1): 94-9; Umano Y et al., Br J Cancer 2001 Apr. 20, 84(8): 1052-7; Uchida N et al., Clin Cancer Res 2004 Dec. 15, 10(24): 8577-86; Suda T et al., Cancer Sci 2006 May, 97(5): 411-9; Watanabe T et al., Cancer Sci 2005 August, 96(8): 498-506).
as §1

Sequence | CTL activity of CTL line against COS7 cells expressing both KNTC2 and HLA-A*0201 ([1]; COS7 transfected with both full length KNTC2 and HLA-A*0201) | CTL activity of CTL line against control COS7 cells ([1]; COS7 transfected with either full length KNTC2 or HLA-A*0201) | Peptide specific CTL activity (IFN-gamma production) by IFN-gamma ELISPOT [2] | IFN-gamma production of CTL clones by IFN-gamma ELISA [3] | IFN-gamma production of CTL lines by IFN-gamma ELISA [4]
ALVWLIDCI (a peptide derived from KNTC2) [SEQ ID NO: 7, 9mer peptide derived from KNTC2, start position 184] | potent CTL activity | no significant specific CTL activity was detected | potent IFN-gamma production | Potent IFN-gamma production | potent IFN-gamma production
FLYGFLCPS (a peptide derived from KNTC2) [SEQ ID NO: 2, 9mer peptide derived from KNTC2, start position 131] |  |  | potent IFN-gamma production | Potent IFN-gamma production | potent IFN-gamma production
KIFTFLYGFL (a peptide derived from KNTC2) [SEQ ID NO: 41, 10mer peptide derived from KNTC2, start position 127] |  |  | potent IFN-gamma production |  | 
GLNEEIARV (a peptide derived from KNTC2) [SEQ ID NO: 1, 9mer peptide derived from KNTC2, start position 330] |  |  | no specific IFN-gamma production |  | 
LVWLIDCIKI (a peptide derived from KNTC2) [SEQ ID NO: 68, 10mer peptide derived from KNTC2, start position 185] |  |  | potent IFN-gamma production |  | 
KIFTFLYGF (a peptide derived from KNTC2) [SEQ ID NO: 17, 9mer peptide derived from KNTC2, start position 127] |  |  | potent IFN-gamma production |  | 
IVAALVWLI (a peptide derived from KNTC2) [SEQ ID NO: 3, 9mer peptide derived from KNTC2, start position 181] |  |  | potent IFN-gamma production | Potent IFN-gamma production | potent IFN-gamma production
AILDQKLNGL (a peptide derived from KNTC2) [SEQ ID NO: 53, 10mer peptide derived from KNTC2, start position 322] |  |  | potent IFN-gamma production |  | 
